Experimental data from patent publication US7868013B2, “Cycloalkyl substituted pyrimidinediamine compounds and their uses” (Rigel Pharmaceuticals, Inc., priority 2004, dated 2011).
Structures can show the parent of a compound that is named as a salt. Where two headings read alike, the source gives them in different places.

Columns and labels:
U2OS (bone osteosarcoma) = test: In vitro antiproliferation assay, U2OS cells; format: cell-based; details: Homo sapiens, U2OS; U20S
Description: (§1) Certain compounds were tested against other cell types for their ability to inhibit proliferation in standard antiproliferation assays.

[1] = system: PC3 (prostate adenocarcinoma); test: In vitro antiproliferation assay, PC3 cells; format: cell-based; details: Homo sapiens, PC-3
Description: as §1

[2] = system: MOLT4 (T lymphoblast acute lymphoblastic leukemia); test: In vitro antiproliferation assay, MOLT4 cells; format: cell-based; details: Homo sapiens, MOLT-4
Description: as §1

[3] = system: H1299 (non-small cell lung carcinoma); test: In vitro antiproliferation assay, H1299 cells (TABLE 1 6 point assay; TABLE 2); format: cell-based; details: Homo sapiens
Description: as §1

[4] = system: H1155 (non-small cell lung carcinoma); test: In vitro antiproliferation assay, H1155 cells; format: cell-based; details: Homo sapiens, NCI-H1155
Description: as §1

[5] = system: SW620 (colorectal adenocarcinoma); test: In vitro antiproliferation assay, SW620 cells; format: cell-based; details: Homo sapiens, SW-620
Description: as §1

Aurora kinase-B = molecular target: T1, Aurora kinase-B (Homo sapiens, UniProt Q96GD4); test: Functional cellular assay of Aurora kinase-B: phosphorylation of histone H3 in A549 cells; format: cell-based; details: A549 cells, phospho-histone H3; read-out: IC50 of Aurora kinase-B inhibition
T1 construct: endogenous in cells; host or cells: A549 cells
T1 sequence (Q96GD4 whole entry): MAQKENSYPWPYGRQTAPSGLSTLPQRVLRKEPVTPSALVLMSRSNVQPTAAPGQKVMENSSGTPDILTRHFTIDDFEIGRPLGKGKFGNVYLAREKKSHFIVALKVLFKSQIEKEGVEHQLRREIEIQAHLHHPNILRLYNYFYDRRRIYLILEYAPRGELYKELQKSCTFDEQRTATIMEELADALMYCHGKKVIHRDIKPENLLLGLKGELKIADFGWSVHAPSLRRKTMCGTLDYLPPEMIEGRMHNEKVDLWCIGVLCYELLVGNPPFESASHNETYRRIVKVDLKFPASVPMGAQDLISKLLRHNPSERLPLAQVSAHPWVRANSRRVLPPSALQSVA
Description: Enantiomers E1 and E2 (Compounds 60a and 60b, respectively) were tested for their ability to inhibit Aurora kinase-B in a functional cellular assay involving phosphorylation of its substrate, histone H3. For the assay, A549 cells were seeded into the wells of a microtiter tray (5000 cells/well in 100 μl F12K media) late in the afternoon on Day 1. The cells were grown overnight (37° C., 5% CO2) On Day 2, 50 μl nocodazole (1 μM in media) was added to each well, giving a final concentration of 333 nM. Cells were grown for an additional 18 hrs under the same conditions.
On Day 3, 50 μl aliguots of varying concentrations of test compound were added to the wells Test compounds were prepared by 2-fold serial dilution of a […] stock (in DMSO). The diluted compounds in DMSO were then further diluted 1:50 with media to yield a final solution containing 4× test compound, 98% media, 2% DMSO. After incubation, the media/test compound was washed and the cells fixed with 2% paraformaldehyde (in Dulbecco's phosphate buffered saline “DPBS”; 25 μl per well; […] incubation). […] The cells were then stained with a secondary antibody labeled with a fluorescent dye (secondary antibody donkey anti-mouse AlexFluor 488 (Invitrogen Molecular Probes; 1:2000) and DAPI (1:15,000 of 1 mg/ml stock) for 1 hr at room temperature, washed three times with DPBS (200 μl/well) and stored under DPBS (100 μl/well) at 4° C. until ready for analysis.
A Zeiss Axiovert S100 inverted fluorescent microscope with a Plan-NEOFLUAR 10× objective, a Hamamatsu Lightningcure 200 Mercury-Xenon light source and an Omega Optical XF57 quad filter was used for all data collection. […] Images were captured and analyzed in 12-bit format using segmentation and morphological routines contained in the Image Pro software package. Identified nuclei were counted and pixel data for each cell along with experimental conditions was stored in a database using MySQL 4.0.14. […]
For phospho-histone H3 analysis the data is converted to Facs files and analysed using FlowJo. […]

[6] = system: HL160 (promyeloblast promyelocytic leukemia); test: In vitro antiproliferation assay, HL160 cells; format: cell-based
Description: as §1

[7] = system: K562 (bone marrow chronic myelogenous leukemia); test: In vitro antiproliferation assay, K562 cells; format: cell-based; details: Homo sapiens
Description: as §1

[8] = system: U937 (histiocytic lymphoma); test: In vitro antiproliferation assay, U937 cells; format: cell-based; details: Homo sapiens, U-937
Description: as §1

[9] = system: COLO 205 (colorectal adenocarcinoma); test: In vitro antiproliferation assay, COLO 205 cells; format: cell-based; details: Homo sapiens, COLO 205; Colo205
Description: as §1

[10] = system: DU145 (prostate carcinoma); test: In vitro antiproliferation assay, DU145 cells; format: cell-based; details: Homo sapiens, DU-145; DU145; read-out: In Vitro IC50
Description: (§2) Cis racemic Compound 15, (1S,2R) enantiomeric Compound 15a and […] enantiomeric Compound 15b were also tested against DU145 (prostate carcinoma), HCT116 (colorectal carcinoma) and MiaPaCa-2 (pancreatic carcinoma) cell lines.
as §1

[11] = system: MiaPaCa-2 (pancreatic carcinoma); test: In vitro antiproliferation assay, MiaPaCa-2 cells; format: cell-based; details: Homo sapiens, MIA PaCa-2; Miapaca2; read-out: In Vitro IC50
Description: as §2, §1

[12] = system: SU86.86 (pancreatic carcinoma); test: In vitro antiproliferation assay, SU86.86 cells; format: cell-based; details: Homo sapiens, SU.86.86
Description: as §1

[13] = system: HELA (cervical adenocarcinoma); test: In vitro antiproliferation assay, HELA cells; format: cell-based; details: Homo sapiens, HeLa
Description: as §1

[14] = system: CaOV-3 (ovarian adenocarcinoma); test: In vitro antiproliferation assay, CaOV-3 cells; format: cell-based; details: Homo sapiens
Description: as §1

[15] = system: L1210 (mouse lymphocytic leukemia); test: In vitro antiproliferation assay, L1210 cells; format: cell-based; details: Mus musculus
Description: as §1

[16] = system: THP-1 (monocyte acute monocytic leukemia); test: In vitro antiproliferation assay, THP-1 cells; format: cell-based; details: Homo sapiens
Description: as §1

[17] = system: TOV-21G (ovarian clear cell carcinoma); test: In vitro antiproliferation assay, TOV-21G cells; format: cell-based; details: Homo sapiens, TOV21G; TOV-G21
Description: as §1

H7299 = test: In vitro antiproliferation assay, H7299 cells; format: cell-based
Description: as §1

[18] = system: BXPC-3 (pabcreatic adenocarcinoma); test: In vitro antiproliferation assay, BXPC-3 cells; format: cell-based; details: Homo sapiens
Description: as §1

[19] = system: ASPC-1 (pancreatic adenocarcinoma); test: In vitro antiproliferation assay, ASPC-1 cells; format: cell-based; details: Homo sapiens, ASPC1
Description: as §1

[20] = system: MOLT3 (T lymphoblast acute lymphoblastic leukemia); test: In vitro antiproliferation assay, MOLT3 cells; format: cell-based; details: Homo sapiens, MOLT-3
Description: as §1

[21] = system: SK-OV-3 (ovarian adenocarcinoma); test: In vitro antiproliferation assay, SK-OV-3 cells; format: cell-based; details: Homo sapiens, SKOV3
Description: as §1

A549 (lung carcinoma) = test: In vitro antiproliferation assay, A549 cells (TABLE 1 6 point assay; TABLE 2); format: cell-based; details: Homo sapiens
Description: as §1

A549 tumors = test: Xenograft treatment model, A549 tumors; format: in vivo, SCID mice; details: 5 days on/2 days off, 10 mg/kg qd, p>0.05
Description: (§3) When palpable tumors appeared and were of a preselected volume (approx. 100 mm3 for treatment model; >300 mm3 for regression model), the mice were administered test compounds in the amounts and according to the dosing regimens specified in TABLE 3 (treatment protocol) and TABLE 4 (regression protocol), below.

[22] = system: H460 (large cell lung carcinoma); test: In vitro antiproliferation assay, H460 cells; format: cell-based; details: Homo sapiens, NCI-H460
Description: as §1

Colo205 tumors [23] = test: Xenograft regression model, Colo205 tumors; format: in vivo, SCID mice; details: 10 mg/kg/day oral
Description: as §3

Colo205 tumors [24] = test: Xenograft treatment model, Colo205 tumors; format: in vivo, SCID mice; details: daily and pulsed dosing regimens, all dosage levels tested
Description: as §3

MiaPaCa tumors = test: Xenograft regression model, MiaPaCa tumors; format: in vivo, SCID mice; details: 10 mg/kg/day oral or i.p., similar to taxol
Description: as §3

[25] = NCI-H1299, 6 point assay, H1299 cells, read-out: IC50, H1299 cells
[26] = NCI-H1299, H1299, read-out: In Vitro IC50
[27] = A549, 6 point assay, A549 cells, read-out: IC50, A549 cells
[28] = A549, A549, read-out: In Vitro IC50

In the case of Cc1cc(Nc2ncc(F)c(N[C@H]3[C@@H](C(N)=O)[C@@H]4C=C[C@H]3C4)n2)ccc1N1CCN(C)CC1 (single isomer, unassigned) [Compound 60a], the IC50 (U2OS (bone osteosarcoma)) is reported as no more than 10 nM, the IC50 [1] is reported as no more than 10 nM and the IC50 [2] is reported as no more than 10 nM. For the same compound, the IC50 [3, 25] was no more than 100 nM, the IC50 [3, 26] was no more than 10 nM and the IC50 [4] was no more than 10 nM. It also gave an IC50 [5] of no more than 20 nM, an IC50 (Aurora kinase-B) of roughly 7 nM and an IC50 [6] of no more than 10 nM. It also gave an IC50 [7] of no more than 1000 nM, an IC50 [8] of no more than 10 nM and an IC50 [9] of no more than 10 nM. It also gave an IC50 [10] of no more than 20 nM, an IC50 [11] of no more than 10 nM and an IC50 [12] of no more than 20 nM. It also gave an IC50 [13] of no more than 10 nM, an IC50 [14] of no more than 10 nM and an IC50 [15] of no more than 20 nM. It also gave an IC50 [16] of no more than 1000 nM, an IC50 [17] of no more than 10 nM and an IC50 (H7299) of no more than 20 nM. It also gave an IC50 [18] of no more than 10 nM, an IC50 [19] of no more than 10 nM and an IC50 [20] of no more than 10 nM. For the same compound, the IC50 [21] was no more than 20 nM, the IC50 (A549 (lung carcinoma); [27]) was no more than 100 nM and the IC50 (A549 (lung carcinoma); [28]) was no more than 10 nM.

For Cc1cc(Nc2ncc(F)c(N[C@H]3[C@@H](C(N)=O)[C@@H]4C=C[C@H]3C4)n2)ccc1N1CCN(C)CC1 [compound 234, (1R,2R,3S,4S)—N4-(3-Aminocarbonylbicyclo[2.2.1]hept-5-en-2-yl)-5-fluoro-N2-[3-methyl-4-(4-methylpiperazin-1-yl)phenyl]-2,4-pyrimidinediamine Hydrogen Chloride Salt], the IC50 [3, 25] was 100 to 1000 nM, the IC50 [3, 26] was no more than 1000 nM and the “Reduction in mean tumor volume” value (A549 tumors) was roughly 40%. For the same compound, the IC50 [9] was no more than 10 nM, the IC50 [10] was no more than 1000 nM and the IC50 [11] was no more than 10 nM. For the same compound, the IC50 [13] was no more than 10 nM, the IC50 [22] was no more than 10 nM and the “Reduction in tumor growth rate” value (Colo205 tumors [23]) was “Significant reductions in tumor growth rate”. The IC50 (H7299) was no more than 1000 nM, the “Reduction in tumor growth rate as compared to a vehicle control” value (Colo205 tumors [24]) was “significant (p<0.050) reductions in tumor growth rate” and the IC50 (A549 (lung carcinoma); [27]) was no more than 100 nM. For the same compound, the IC50 (A549 (lung carcinoma); [28]) was no more than 10 nM and the “Reduction in tumor growth rate” value (MiaPaCa tumors) was “Significant reductions in tumor growth rate”.
